For one data set, the target named is BTK recombinant protein (Homo sapiens (Human), UniProt Q06187). Kind of data set: Determination of biochemical BTK (Z'-LYTE kinase assay). The text has this: Example 2 Determination of Biochemical BTK
(§1) 1. Reagents and Materials
• BTK recombinant protein: Invitrogen, Cat #PV3363; • Z′-LYTE® kinase test kit-tyrosine 1 peptide: Invitrogen, Cat #PV3190; • 384-well low-flange black flat-bottomed polystyrene NBS microplate, no lid, no sterilization: Corning, Cat #3575; • 96-well polystyrene conical-bottomed MicroWell™ plate, sealed with a lid: Thermo Scientific™ Nunc™, Cat #277143; • Envision multi-mode plate reader: PerkinElmer; • Mixmate® shaker: Eppendorf; • TS-2102 shaking incubator: TENSUC; 2. Methods
Z′-LYTE® biochemical assay employs a fluorescence resonance energy transfer (FRET)-based, coupled-enzyme format and is based on the differential sensitivity of phosphorylated and non-phosphorylated peptides to proteolytic cleavage. Both ends of the short peptide substrate are labeled with two fluorescent groups to form a FRET paired combination. In the primary reaction (the Kinase Reaction), the kinase transfers the γ-phosphate of ATP to a single […] residue on the short peptide substrate. In the secondary reaction (the development reaction), the non-phosphorylated short peptides were recognized and cleaved by a site-specific protease (the development reagent). Phosphorylated short peptides can resist such cleavage. Cleavage of short peptides can disrupt the donor (such as coumarin) and receptor fluorophores (fluorescein) on the short peptides, while the phosphorylated short peptides can maintain FRET. The calculation method of the ratio is as follows, and the ratio of the respective emission signals generated by the donor fluorophores emitted (after excitation at 400 nm) to the receptors is calculated. Emission signal ratio=emitted light by coumarin (445 nm)/emitted light by fluorescein (520 nm). If the FRET short peptide is phosphorylated (such as no kinase inhibitor), the emitted light ratio will remain in a lower level. If the FRET short peptide is non-phosphorylated (such as kinase inhibitor), the emitted light ratio will be in a higher level. In this way, the inhibitory effects of different compound inhibitors on BTK kinase activity would be distinguished.
The experiment were carried out according to the instructions of the Z′-LYTE® kinase test kit-tyrosine 1 peptide. Reagent preparation: 1.33× kinase buffer: 5× kinase buffer was diluted with water to 1.33× kinase buffer; an enzyme solution: the kinase was dissolved in 1.33× kinase buffer with the final working concentration being 3.32 nM; a short peptide solution: a short peptide stock solution (1 mM dissolved in DMSO) was dissolved in 1.33× kinase buffer with the final working concentration being 2 μM; Z′-LYTE Tyr01 phosphorylated short peptide solution, 0.6 μl of stock solution (1 mM dissolved in DMSO) was dissolved in 149.4 μl of 1.33× kinase buffer; an ATP solution: an ATP stock solution (10 mM aqueous solution) was dissolved in 1.33× kinase buffer with the final working concentration being 32 μM; a color-developing solution: color-developing solution B was dissolved in color-developing buffer with the final working concentration being 1× color-developing solution; 4× compound preparation: the compound was diluted in 3-fold gradient concentration to finally obtain 4% DMSO aqueous solution containing different concentrations of the compound, with the final working concentration being 3000, 1000, 333.33, 111.11, 37.04, 12.35, 4.12, 1.37 nM, 8 concentration points in total.
Specific steps of the experiment: In the experiment, there were three control groups, each with 8 replicate wells, which were C1 100% inhibition group (no ATP), C2 0% inhibition group (with ATP), and C3 100% phosphorylation group, respectively. 2.5 μl of serially diluted compound was added to each well of a 384-well plate, with double replicate wells, and 4% DMSO solution was added to wells C1, C2, and C3. […]

The nature of data set [1]: Stability test in liver microsomes (mouse). The data set is classed as in vitro ADME. Particulars: 1 μM compound; for stability in mouse liver microsomes compared with reference GDC-0853: 0.5 mg/mL liver microsomes, 30 minutes incubation; for MLM, percentage of remaining compound after 30 minutes of incubation: mouse liver microsomes. An excerpt:
(§2) Example 5 Stability Test in Liver Microsomes
(§3) Both male CD-1 mouse pooled liver microsomes and male SD rat pooled liver microsomes were purchased from BioreclamationIVT Corporation, USA.
(§4) Phenacetin, glucose-6-phosphate dehydrogenase (G-6-PDH) and nicotinamide adenine dinucleotide phosphate (NADP) were all purchased from Sigma-Aldrich Corporation, USA. Glucose-6-phosphate (G-6-P) was purchased from Shanghai Eybridge Chemical Technology Co., Ltd.
(§5) Ten mM test compound stock solution: a certain amount of test compound was weighed, and dissolved with an appropriate volume of DMSO to prepare a stock solution with a concentration of 10 mM for use.
(§6) Reaction stopping solution: an appropriate amount of internal standard compound phenacetin was dissolved in acetonitrile to prepare a reaction stopping solution with a concentration of 1000 ng/mL for use at room temperature.
(§7) The test compound stock solution was diluted with an organic solvent (usually a mixture of acetonitrile, methanol and water with various ratios, depending on the solubility of the compound, if necessary, 1 N hydrochloric acid or 1 N sodium hydroxide would be added to facilitate solubilization) to the 0.1 mM (the final concentration of the compound in the reaction system was 1 μM) and the concentration percentage of the organic solvents in the incubation system no more than 1% (wherein the percentage of DMSO was required to be no more than 0.1%). An appropriate amount of 100 mM NADP, 500 mM G-6-P and 100 Unit/mL G-6-PDH were mixed and diluted with ultrapure water (the final system contains 1 mM NADP, 5 mM G-6-P and 1 Unit/mL G-6-PDH), pre-incubated in a 37° C. water bath for 10 minutes and then placed on ice for use as a NADPH regeneration solution. 20 mg/mL liver microsomes solution and 200 mM phosphate buffer was mixed, and diluted with ultrapure water to give a liver microsomes solution containing 2.5 mg/mL liver microsomes (the final concentration of the reaction system is 0.5 mg/mL) and 50 mM phosphate buffer. The diluted liver microsomes solution was mixed with 0.1 mM compound solution, a mixture of 100 mM EDTA, 300 mM MgCl2 solution, 200 mM phosphate buffer (the final system was 3 mM MgCl2, 1 mM EDTA and 50 mM phosphate buffer) and water in an appropriate volume was added. Finally, the NADPH regeneration solution was added, then the reaction solution was placed in a 37° C. water bath to start the reaction (the reaction time was 30 minutes), and the reaction was stopped by adding the ice-cold acetonitrile reaction stopping solution containing the internal standard. The 0-minute sample was not incubated in a 37° C. water bath, and its difference from the 30-minute sample further lies in that the ice-cold acetonitrile reaction stopping solution containing the internal standard was added first, and then the NADPH regeneration solution was added. The sample added with the reaction stopping internal standard solution was vortexed and mixed well, and then centrifuged at 4400 rpm for 10 minutes. The supernatant was taken and diluted ten times with 50% methanol for LC-MS/MS analysis.
(§8) LC-MS/MS was used to determine the concentration of the compound in the sample. The percentage of the remaining compound after 30 minutes of incubation comparing with that in the 0-minute sample was calculated using the peak area ratio of the compound to the internal standard as an indicator, to evaluate the metabolic stability of the compound.
(§9) Instrument: API4500, API4000 or LTQ Mass Spectrometer; the liquid phase is UHPLC system (Shimadzu LC-30 AD, model Nexra X2) including liquid delivery unit, column thermostat, detector and autosampler; or Agilent 1200 Binary Pump series HPLC and CTC Autosampler.
(§10) Chromatographic column: Waters XSELECT Hss T3 C18 (2.5 μm, 2.1×50 mm) or […] (5 μm, 2.0×50 mm)
(§11) Mobile phase: • A: water with 0.1% FA (formic acid) (with or without 0.1% ACN (acetonitrile)) • B: acetonitrile with 0.1% FA (formic acid).

Data set [2] can be described thus: Stability test in liver microsomes (rat). The data set is classed as in vitro ADME. Particulars: 1 μM compound; for stability in rat liver microsomes compared with reference GDC-0853: 0.5 mg/mL liver microsomes, 30 minutes incubation; for RLM, percentage of remaining compound after 30 minutes of incubation: rat liver microsomes.
Source text: as §2, §3, §4, §5, §6, §7, §8, §9, §10, §11

Data set [3] addresses phosphorylated BTK in Ramos cells (Homo sapiens (Human), UniProt Q06187). Kind of data set: Determination of phosphorylated BTK in Ramos cells (BTK phospho-Y223 HTRF). The data set is classed as cell-based. Here is the method:
Determination of Phosphorylated BTK in Ramos Cells
as §1
• Ramos cells: Ramos cells were purchased from American Standard Biological Collection Center ATCC Cell Bank, PRMI 1640 medium containing L-glutamine, 1.5 g/L of sodium bicarbonate, 2.383 g/L of HEPES solution, 0.11 g/L of sodium pyruvate and 4.5 g/L of glucose was used, added 10% fetal bovine serum FBS, and placed in a 5% C02, 37° C. cell incubator for normal culture; • PRMI 1640 medium: GIBCO, Cat #A10491-01; • Fetal bovine serum (FBS): GIBCO, Cat #100100-147; • Hank's balanced salt solution (HBSS): GIBCO, Cat #14025-092; • Immunoglobulin M (IgM): Jackson Immuno, Cat #109-006-129; • 3% hydrogen peroxide (3% H2O2): Sigma, Cat #88597-100 ML-F; • Phosphorylated BTK HTRF detection kit (BTK phospho-Y223 HTRF kit): Cisbio, Cat #63ADK017PEH; • Microwell plate reader: Envision, Perkin Elmer; • 384-well plate CulturPlate™384: Perkin Elmer, Cat #6007680 • 96-well plate: Corning, Cat #3799. 2. Methods
Ramos cells were starved in PRMI 1640 medium with 1% FBS for 2 hours. The starved Ramos cells were diluted with Hank's balanced salt solution to 5.0×10^6 cells/ml, seeded in a 96-well plate with 20 μL/well (1.0×10^5 cells/well), and cultured in a 5% CO2, 37° C. cell incubator. […]
The 384 well plate incubated overnight in the constant temperature incubator was taken out to detect the luminescence signal using the Envision microwell plate reader at the […]. The reading value at 665 nm/615 nm of each well multiplied by 104 was used as the signal value of each well.
The average signal value of the wells supplemented with the mixed solution of human immunoglobulin M (final concentration was 10 μg/mL) and hydrogen peroxide (final concentration was 3.3 mM) without the test compound was regarded as the high value, and the average signal value of the wells without immunoglobulin M stimulation and without the test compound was regarded as the low value. According to the signal value in each well, the inhibition ratio (%) of each concentration of compounds was calculated, and the 205 model in XL-Fit 5.3 software (ID Business Solutions Limited) was used to obtain an IC50 value. […]

Chain of BTK recombinant protein (Q06187 whole entry): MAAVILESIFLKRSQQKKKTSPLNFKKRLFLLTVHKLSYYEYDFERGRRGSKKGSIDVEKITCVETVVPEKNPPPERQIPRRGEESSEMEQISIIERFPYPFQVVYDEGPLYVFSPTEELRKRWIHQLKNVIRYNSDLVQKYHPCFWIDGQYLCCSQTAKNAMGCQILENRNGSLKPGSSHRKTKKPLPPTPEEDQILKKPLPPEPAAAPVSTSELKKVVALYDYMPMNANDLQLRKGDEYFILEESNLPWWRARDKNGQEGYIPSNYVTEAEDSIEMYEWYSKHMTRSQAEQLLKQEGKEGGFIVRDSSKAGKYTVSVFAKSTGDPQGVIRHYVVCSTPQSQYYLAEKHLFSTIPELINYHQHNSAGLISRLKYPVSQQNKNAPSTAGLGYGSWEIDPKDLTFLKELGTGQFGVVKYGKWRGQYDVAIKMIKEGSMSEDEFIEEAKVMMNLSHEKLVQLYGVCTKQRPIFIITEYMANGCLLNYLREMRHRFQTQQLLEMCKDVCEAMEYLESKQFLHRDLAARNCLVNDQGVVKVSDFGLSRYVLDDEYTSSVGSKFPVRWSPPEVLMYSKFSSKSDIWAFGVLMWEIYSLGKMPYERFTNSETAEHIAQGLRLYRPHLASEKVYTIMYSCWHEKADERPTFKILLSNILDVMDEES
Chain of phosphorylated BTK in Ramos cells (Q06187 whole entry): as above

For the compound `COCC(C)n1cc(Nc2nc(-c3ccnc(-n4ccn5c6c(cc5c4=O)CC(C)(C)C6)c3CO)cn(C)c2=O)nn1` (stereo not drawn) [Compound 42], the half-maximal inhibitory concentration (IC50) on BTK recombinant protein is 269 nM.

As to `C[C@H]1CN(C2COC2)CCN1c1ccc(Nc2nc(-c3ccnc(-n4ccn5c6c(cc5c4=O)CC(C)(C)C6)c3CO)cn(C)c2=O)nc1` [Compound 20], at BTK recombinant protein, the IC50 amounted to 27 nM.

Take `Cn1cc(-c2ccnc(-n3ccn4c5c(cc4c3=O)CC(C)(C)C5)c2CO)cc(Nc2ccc(N3CCN(C4COC4)CC3=O)cn2)c1=O` [Compound 34]: in data set [1], the “stability in mouse liver microsomes compared with reference GDC-0853” value is “better than that of the reference GDC-0853” and the “MLM, percentage of remaining compound after 30 minutes of incubation” value amounted to 89.5%. Further, at BTK recombinant protein, the concentration for half-maximal inhibition (IC50) is 5 nM. In addition, in data set [2], the “stability in rat liver microsomes compared with reference GDC-0853” value is “better than that of the reference GDC-0853” and the “RLM, percentage of remaining compound after 30 minutes of incubation” value is reported as about 100%.

As for “2-(3′-(hydroxymethyl)-5-((5-(2-methoxyethyl)-4-methyl-4,5,6,7-tetrahydropyrazolo[1,5-α]pyrazin-2-yl)amido)-1-methyl-6-oxo-1,6-dihydro-[3,4′-bispyridin]-2′-yl)-7,7-dimethyl-7,8-dihydro-2H-cyclopenta[4,5]pyrrolo[1,2-d][1,2,4]triazin-1(6H)-one optically pure enantiomer [Compound 120]”, the values for the IC50 (in data set [3]; on BTK recombinant protein) were 5 nM and 8 nM, respectively.

Turning to `CC1c2cc(Nc3cc(-c4ccnc(-n5ccn6c7c(cc6c5=O)CCC7)c4CO)cn(C)c3=O)nn2CCN1C1COC1` (racemic) [Compound 144], the half-inhibitory concentration (IC50) was determined as 38 nM in data set [3] and 18 nM at BTK recombinant protein.

As to `C[C@H]1CN(C2COC2)CCN1c1ccc(Nc2cc(-c3ccnc(-n4ccn5c6c(cc5c4=O)CC(C)(C)C6)c3CO)nn(C)c2=O)nc1` [Compound 22], in data set [1], the “stability in mouse liver microsomes compared with reference GDC-0853” value is on record as “better than that of the reference GDC-0853” and the “MLM, percentage of remaining compound after 30 minutes of incubation” value was 83.4%. Moreover, on BTK recombinant protein, the IC50 is 10 nM. In addition, in data set [2], the “stability in rat liver microsomes compared with reference GDC-0853” value was “better than that of the reference GDC-0853” and the “RLM, percentage of remaining compound after 30 minutes of incubation” value was determined as 95.6%.

Regarding `CCn1cc(Nc2cc(-c3ccnc(-n4ccn5c6c(cc5c4=O)CC(C)(C)C6)c3CO)cn(C)c2=O)nn1` [Compound 24], at BTK recombinant protein, the IC50 turned out to be 3 nM.

With `CCn1cc(Nc2cc(-c3ccnc(-n4ccn5c6c(cc5c4=O)CC(C)(C)C6)c3CO)nn(C)c2=O)nn1` [Compound 25], the IC50 at BTK recombinant protein was found to be 8 nM.
